In brackets after ≈: the same amount, converted by molar mass. Activity calls are given as the source filed them. The calls are words filed in the database; no cut-off is given here.
How the values were obtained:
[1] = Displacement of BODIPY-TR-cadaverine from Lipoteichoic acid preincubated with LTA for 15 mins followed by compound addition and measured for 30 mins by fluorescence based microplate reader assay; settings: time 45.0 min; DDE = dose-dependent effect
Staphylococcus aureus [2] = test: Antibacterial activity against Staphylococcus aureus ATCC 29213 assessed as inhibition of bacterial growth in presence of 2.50 mmol/L Ca2+ (reference value: […] microg/ml); type: functional
Staphylococcus aureus [3] = test: Antibacterial activity against methicillin resistant Staphylococcus aureus N315 assessed as inhibition of bacterial growth in presence of 20 umol/L […] (reference value: […] microg/ml); type: functional
[4] = Cytotoxicity against mouse NCTC clone 929 cells assessed as cell viability at 50 ug/ml after 24 hrs by CCK8 assay; type: toxicity, cell-based; settings: at 50 µg/mL, read-out: Activity
Staphylococcus aureus [5] = test: Antibacterial activity against methicillin resistant Staphylococcus aureus N315 assessed as inhibition of bacterial growth in presence of 1.00 mmol/L Mg2+ (reference value: […] microg/ml); type: functional
Staphylococcus aureus [6] = test: Antibacterial activity against methicillin resistant Staphylococcus aureus NCTC10442 assessed as inhibition of bacterial growth in presence of 20 umol/L […] (reference value: […] microg/ml); type: functional
Staphylococcus aureus [7] = test: Antibacterial activity against methicillin resistant Staphylococcus aureus N315 assessed as inhibition of bacterial growth in presence of 20 umol/L Fe2+ (reference value: […] microg/ml); type: functional
Staphylococcus aureus [8] = test: Induction of morphological changes in Staphylococcus aureus ATCC 29213 assessed as perforation at 8 times MIC incubated for 2 hrs by TEM analysis; type: functional, organism-based
[9] = tested on: Staphylococcus epidermidis; test: Antibacterial activity against Staphylococcus epidermidis CMCC26069 assessed as inhibition of bacterial growth incubated for 24 hrs by microbroth dilution method; type: functional
Staphylococcus aureus [10] = test: Antibacterial activity against methicillin resistant Staphylococcus aureus N315 assessed as inhibition of bacterial growth incubated for 24 hrs by microbroth dilution method; type: functional
Staphylococcus aureus [11] = test: Antibacterial activity against methicillin resistant Staphylococcus aureus NCTC10442 assessed as inhibition of bacterial growth in presence of 20 umol/L Fe2+ (reference value: […] microg/ml); type: functional
Cell membrane [12] = test: Induction of cell membrane disruption in methicillin resistant Staphylococcus aureus NCTC10442 assessed as increase in fluorescence intensity measured for 100 mins by SYTOX green assay; type: subcellular; settings: DDE = dose-dependent effect
Staphylococcus aureus [13] = test: Antibacterial activity against methicillin resistant Staphylococcus aureus NCTC10442 assessed as inhibition of bacterial growth in presence of 4.5 mmol/L K+ (reference value: […] microg/ml); type: functional
Staphylococcus aureus [14] = test: Antibacterial activity against Staphylococcus aureus ATCC 29213 infected in mouse corneal infection model assessed as log reduction in bacterial load at 5 mg/ml pre-infected with bacteria for 24 hrs followed by compound administered four times a day for 3 consecutive weeks; type: functional; settings: time 3 weeks
Staphylococcus aureus [15] = test: Antibacterial activity against Staphylococcus aureus ATCC 15981 assessed as inhibition of bacterial growth incubated for 24 hrs by microbroth dilution method; type: functional
Staphylococcus aureus [16] = test: Antibacterial activity against methicillin resistant Staphylococcus aureus NCTC10442 assessed as inhibition of bacterial growth incubated for 24 hrs by microbroth dilution method; type: functional
Staphylococcus aureus [17] = test: Antibacterial activity against Staphylococcus aureus ATCC 29213 assessed as inhibition of bacterial growth in presence of 140 mmol/L Na+ (reference value: […] microg/ml); type: functional
Staphylococcus aureus [18] = test: Antibacterial activity against Staphylococcus aureus ATCC 29213 assessed as inhibition of bacterial growth in presence of 20 umol/L […] (reference value: […] microg/ml); type: functional
Staphylococcus aureus [19] = test: Antibacterial activity against Staphylococcus aureus ATCC 29213 assessed as inhibition of bacterial growth incubated for 24 hrs by microbroth dilution method; type: functional
Enterococcus faecalis = test: Antibacterial activity against Enterococcus faecalis ATCC 29212 assessed as inhibition of bacterial growth incubated for 24 hrs by microbroth dilution method; type: functional
Staphylococcus aureus [20] = test: Antibacterial activity against Staphylococcus aureus ATCC 29213 assessed as inhibition of bacterial growth in presence of 4.5 mmol/L K+ (reference value: […] microg/ml); type: functional
Cell membrane [21] = test: Induction of cell membrane disruption in Staphylococcus aureus ATCC 29213 assessed as increase in fluorescence intensity measured for 100 mins by SYTOX green assay; type: subcellular; settings: DDE = dose-dependent effect
Staphylococcus aureus [22] = test: Antibacterial activity against methicillin resistant Staphylococcus aureus NCTC10442 assessed as inhibition of bacterial growth in presence of 140 mmol/L Na+ (reference value: […] microg/ml); type: functional
Staphylococcus aureus [23] = test: Antibacterial activity against Staphylococcus aureus ATCC 29213 assessed as inhibition of bacterial growth in presence of 20 umol/L Fe2+ (reference value: […] microg/ml); type: functional
Staphylococcus aureus [24] = test: Antibacterial activity against Staphylococcus aureus ATCC 29213 assessed as inhibition of bacterial growth in presence of 19 umol/L Zn2+ (reference value: […] microg/ml); type: functional
Staphylococcus aureus [25] = test: Antibacterial activity against methicillin resistant Staphylococcus aureus NCTC10442 assessed as inhibition of bacterial growth in presence of 1.00 mmol/L Mg2+ (reference value: […] microg/ml); type: functional
[26] = Displacement of BODIPY-TR-cadaverine from Lipoteichoic acid at 4 times MIC preincubated with LTA for 15 mins followed by compound addition and measured for 30 mins by fluorescence based microplate reader assay; settings: time 45.0 min
Staphylococcus aureus [27] = test: Antibacterial activity against Staphylococcus aureus ATCC 29213 assessed as inhibition of bacterial growth in presence of 1.00 mmol/L Mg2+ (reference value: […] microg/ml); type: functional
Staphylococcus aureus [28] = test: Antibacterial activity against methicillin resistant Staphylococcus aureus N315 assessed as inhibition of bacterial growth in presence of 19 umol/L Zn2+ (reference value: […] microg/ml); type: functional
Staphylococcus aureus [29] = test: Antibacterial activity against methicillin resistant Staphylococcus aureus NCTC10442 assessed as inhibition of bacterial growth in presence of 2.50 mmol/L Ca2+ (reference value: […] microg/ml); type: functional
[30] = tested on: Staphylococcus epidermidis; test: Antibacterial activity against Staphylococcus epidermidis ATCC 12228 assessed as inhibition of bacterial growth incubated for 24 hrs by microbroth dilution method; type: functional
Staphylococcus aureus [31] = test: Bactericidal activity against Staphylococcus aureus ATCC 29213 at 4 to 8 times MIC after 24 hrs by time kill assay; type: functional, organism-based
Cell membrane [32] = test: Disruption of membrane integrity in Staphylococcus aureus ATCC 29213 assessed as cell membrane damage at 8 times MIC incubated for 2 hrs by Live/dead staining based laser confocal microscopy analysis; type: subcellular
Staphylococcus aureus [33] = test: Antibacterial activity against methicillin resistant Staphylococcus aureus N315 assessed as inhibition of bacterial growth in presence of 4.5 mmol/L K+ (reference value: […] microg/ml); type: functional
Staphylococcus aureus [34] = test: Bactericidal activity against Staphylococcus aureus ATCC 29213 at 4 to 8 times MIC after 0.5 hrs by time kill assay; type: functional
[35] = Cytotoxicity against human HEK293 cells assessed as cell viability at 50 ug/ml after 24 hrs by CCK8 assay; type: toxicity, cell-based; settings: at 50 µg/mL, read-out: Activity
[36] = Hemolytic activity in rabbit RBC incubated for 1 hr by microplate reader analysis; type: toxicity, cell-based, Oryctolagus cuniculus, Erythrocyte; settings: rabbit red blood cells (erythrocytes)
Staphylococcus aureus [37] = test: Antibacterial activity against methicillin resistant Staphylococcus aureus N315 assessed as inhibition of bacterial growth in presence of 2.50 mmol/L Ca2+ (reference value: […] microg/ml); type: functional
Staphylococcus aureus [38] = test: Antibacterial activity against methicillin resistant Staphylococcus aureus NCTC10442 assessed as inhibition of bacterial growth in presence of 19 umol/L Zn2+ (reference value: […] microg/ml); type: functional
Staphylococcus aureus [39] = test: Antibacterial activity against methicillin resistant Staphylococcus aureus N315 assessed as inhibition of bacterial growth in presence of 140 mmol/L Na+ (reference value: […] microg/ml); type: functional
Bacillus subtilis = test: Antibacterial activity against Bacillus subtilis CMCC63501 assessed as inhibition of bacterial growth incubated for 24 hrs by microbroth dilution method; type: functional
Staphylococcus aureus [40] = test: Induction of resistant development in Staphylococcus aureus ATCC 29213 assessed as fold increase in MIC at 0.5 MIC after 12 passages by resistant development assay; type: functional

With `COC(=O)[C@H](CCCNC(=N)N)NC(=O)COc1ccc(C(C)(C)CC(C)(C)C)cc1Sc1cc(C(C)(C)CC(C)(C)C)ccc1OCC(=O)N[C@@H](CCCNC(=N)N)C(=O)OC` the Activity [1] was “Dde”, the MIC (Staphylococcus aureus [2]) was 1.56 µg/mL and the MIC (Staphylococcus aureus [3]) was 0.78 µg/mL. The viability at 24 h, 50 ug/ml [4] was 53.1%, the MIC (Staphylococcus aureus [5]) was 0.78 µg/mL and the MIC (Staphylococcus aureus [6]) was 0.78 µg/mL. For the same compound, the MIC (Staphylococcus aureus [7]) was 0.78 µg/mL, the Activity (Staphylococcus aureus [8]) was “Active” and the MIC [9] was 0.39 µg/mL (≈ 0.434 µM). The MIC (Staphylococcus aureus [10]) was 0.78 µg/mL (≈ 0.867 µM), the MIC (Staphylococcus aureus [11]) was 0.78 µg/mL and the Activity (Cell membrane [12]) was “Dde”. For the same compound, the MIC (Staphylococcus aureus [13]) was 0.78 µg/mL, the “log(activity)” value (Staphylococcus aureus [14]) was 6.81 and the MIC (Staphylococcus aureus [15]) was 0.78 µg/mL (≈ 0.867 µM). The MIC (Staphylococcus aureus [16]) was 0.78 µg/mL (≈ 0.867 µM), the MIC (Staphylococcus aureus [17]) was 1.56 µg/mL and the MIC (Staphylococcus aureus [18]) was 0.78 µg/mL. The MIC (Staphylococcus aureus [19]) was 1.56 µg/mL (≈ 1.73 µM), the MIC (Enterococcus faecalis) was 0.78 µg/mL (≈ 0.867 µM) and the MIC (Staphylococcus aureus [20]) was 1.56 µg/mL. For the same compound, the Activity (Cell membrane [21]) was “Dde”, the MIC (Staphylococcus aureus [22]) was 0.78 µg/mL and the MIC (Staphylococcus aureus [23]) was 0.78 µg/mL. It also gave an MIC (Staphylococcus aureus [24]) of 0.78 µg/mL, an MIC (Staphylococcus aureus [25]) of 0.78 µg/mL and an Activity [26] of 62.2%. For the same compound, the MIC (Staphylococcus aureus [27]) was 1.56 µg/mL, the MIC (Staphylococcus aureus [28]) was 0.78 µg/mL and the MIC (Staphylococcus aureus [29]) was 0.78 µg/mL. The MIC [30] was 0.39 µg/mL (≈ 0.434 µM), the Activity (Staphylococcus aureus [31]) was “Active” and the Activity (Cell membrane [32]) was “Active”. It also gave an MIC (Staphylococcus aureus [33]) of 0.78 µg/mL, an Activity (Staphylococcus aureus [34]) of 99.99% and a viability at 24 h, 50 ug/ml [35] of 55.9%. The HC50 at 1 h [36] was over 200 µg/mL, the MIC (Staphylococcus aureus [37]) was 0.78 µg/mL and the MIC (Staphylococcus aureus [38]) was 0.78 µg/mL. For the same compound, the MIC (Staphylococcus aureus [39]) was 0.39 µg/mL and the MIC (Bacillus subtilis) was 0.78 µg/mL (≈ 0.867 µM).

In the case of `CCn1cc(C(=O)O)c(=O)c2cc(F)c(N3CCNCC3)cc21`, the fold change (FC) (Staphylococcus aureus [40]) is reported as 32.

In the case of `CCCCNCCCCOc1ccc(C(C)(C)CC(C)(C)C)cc1Sc1cc(C(C)(C)CC(C)(C)C)ccc1OCCCCNCCCC`, the MIC (Staphylococcus aureus [10]) is reported as 6.25 µg/mL (≈ 8.96 µM), the MIC (Staphylococcus aureus [16]) is reported as 6.25 µg/mL (≈ 8.96 µM) and the MIC (Staphylococcus aureus [19]) is reported as 6.25 µg/mL (≈ 8.96 µM). The HC50 at 1 h [36] was 41.5 µg/mL.

`Cc1cc(Sc2cc(C)cc(C(C)(C)C)c2OCC(=O)N[C@@H](CCCNC(=N)N)C(N)=O)c(OCC(=O)N[C@@H](CCCNC(=N)N)C(N)=O)c(C(C)(C)C)c1` gave an MIC (Staphylococcus aureus [10]) of 12.5 µg/mL (≈ 15.9 µM), an MIC (Staphylococcus aureus [16]) of 12.5 µg/mL (≈ 15.9 µM) and an MIC (Staphylococcus aureus [19]) of 25 µg/mL (≈ 31.8 µM). For the same compound, the HC50 at 1 h [36] was over 200 µg/mL.
